Among the data in PubChem BioAssay (NCI) are TGI values, retold here.

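Protocol summary: plate cells (96-well), add compound at 5 concentrations, incubate 48 h, interpolate endpoints linearly. TGI denotes the concentration required for complete inhibition of growth.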 Some results are limits rather than exact numbers.

Test systems include UACC-62 melanoma; HCT-116 colon; A549 NSCLC; PC-3 prostate; COLO 205 colon; IGROV1 ovarian; OVCAR-4 ovarian; SR leukemia; CAKI-1 renal; MOLT-4 leukemia; UO-31 renal; TK-10 renal; MCF7 breast; MALME-3M melanoma; K-562 leukemia; HCT-15 colon; SK-OV-3 ovarian; LOX IMVI melanoma; HOP-62 NSCLC; HCC-2998 colon.
What all share (experiment): DTP human tumour cell line panel, 48 h

In general, TGI refers to the concentration at which net growth stops. Read a high TGI as lower sensitivity of the cells. `CCOC(=O)C1(C(=O)OCC)C[C@@H](C)[C@@H](O)C1`: the TGI in the test with UACC-62 melanoma, in the test on HCT-116 colon, in the test on A549 NSCLC, in the test on PC-3 prostate, in the test with COLO 205 colon and with IGROV1 ovarian was more than 100 µM in each case. Also, the TGI in the test on OVCAR-4 ovarian, in the test with SR leukemia, with CAKI-1 renal, in the test with MOLT-4 leukemia, in the test on UO-31 renal and with TK-10 renal was more than 100 µM throughout. The concentration for total growth inhibition (TGI) with MCF7 breast, in the test on MALME-3M melanoma, in the test on K-562 leukemia, with HCT-15 colon, with SK-OV-3 ovarian and in the test on LOX IMVI melanoma was more than 100 µM each time. The TGI with HOP-62 NSCLC was more than 100 µM.

With `O=C(Nc1cccc(C(F)(F)F)c1)C(=O)C1NC(=S)NC1=O` (stereo not given), the TGI with UACC-62 melanoma, with HCT-116 colon, in the test with A549 NSCLC, in the test with HCC-2998 colon, in the test with COLO 205 colon and in the test on IGROV1 ovarian was more than 100 µM each time. Besides, the TGI with OVCAR-4 ovarian, with SR leukemia, with CAKI-1 renal, with MOLT-4 leukemia, in the test with UO-31 renal and with TK-10 renal was more than 100 µM each time. Also, the TGI in the test with MALME-3M melanoma, with K-562 leukemia, in the test on HCT-15 colon, in the test with SK-OV-3 ovarian, in the test on LOX IMVI melanoma and in the test on HOP-62 NSCLC was more than 100 µM each time.

In the case of `C/C=C1\CC2C(=O)CCC2C2c3ccccc3OC12` (stereo not given), the TGI in the test with UACC-62 melanoma, in the test on HCT-116 colon, with A549 NSCLC, in the test on PC-3 prostate, in the test with COLO 205 colon and in the test on IGROV1 ovarian was more than 100 µM throughout. Further, the concentration for total growth inhibition (TGI) in the test with OVCAR-4 ovarian, in the test with SR leukemia, in the test on CAKI-1 renal, in the test on MOLT-4 leukemia, with UO-31 renal and in the test on TK-10 renal was more than 100 µM in each case. Also, the TGI in the test on MCF7 breast, in the test with MALME-3M melanoma, in the test on K-562 leukemia, in the test with HCT-15 colon, with SK-OV-3 ovarian and in the test on LOX IMVI melanoma was more than 100 µM throughout. In addition, in the test on HOP-62 NSCLC, the TGI was more than 100 µM.

For `CCOC(=O)Cn1c(=O)c2nc(SC)sc2n(-c2ccccc2)c1=S`, the total growth inhibition concentration (TGI) in the test on UACC-62 melanoma is 11.5 µM; in the test with HCT-116 colon, more than 100 µM; with A549 NSCLC it was more than 100 µM; with HCC-2998 colon, more than 100 µM; in the test with PC-3 prostate, 84.4 µM; with COLO 205 colon, more than 100 µM. The TGI was more than 100 µM in the test on IGROV1 ovarian; 35.2 µM with OVCAR-4 ovarian; more than 100 µM in the test on SR leukemia; more than 100 µM with MOLT-4 leukemia; 15 µM with UO-31 renal; 60.1 µM in the test on TK-10 renal. The TGI in the test on MCF7 breast is more than 100 µM; with MALME-3M melanoma it was 60.2 µM; with K-562 leukemia, more than 100 µM; with HCT-15 colon, more than 100 µM; in the test on SK-OV-3 ovarian, 60.7 µM; with LOX IMVI melanoma it was more than 100 µM. Moreover, in the test on HOP-62 NSCLC, the TGI was 57.1 µM.

Take `CCOC(=O)c1cc2c3c(c(C(C)=O)c(O)c2[nH]1)N(C(C)=O)CC3`: the TGI in the test on UACC-62 melanoma, with HCT-116 colon, in the test on PC-3 prostate, in the test on COLO 205 colon, in the test with IGROV1 ovarian and in the test with SR leukemia was more than 100 µM in each case. Also, the total growth inhibition concentration (TGI) in the test with CAKI-1 renal, with MOLT-4 leukemia, in the test on UO-31 renal, with TK-10 renal, in the test with MCF7 breast and in the test on MALME-3M melanoma was more than 100 µM in each case. Moreover, the TGI in the test on K-562 leukemia, in the test with HCT-15 colon, with SK-OV-3 ovarian, in the test on LOX IMVI melanoma and in the test with HOP-62 NSCLC was more than 100 µM in each case.

Turning to `Nc1ccc(Oc2ccc(C3(c4ccc(Oc5ccc(N)cc5)cc4)C4CC5CC(C4)CC3C5)cc2)cc1`, the TGI with UACC-62 melanoma is 49.1 µM; with HCT-116 colon, 13.7 µM; in the test on A549 NSCLC, 42.2 µM; with PC-3 prostate it was more than 52.9 µM; in the test with COLO 205 colon, more than 100 µM; in the test on IGROV1 ovarian, more than 44.5 µM. The TGI in the test on OVCAR-4 ovarian was more than 74 µM; in the test with SR leukemia, 20.3 µM; with CAKI-1 renal, more than 83.4 µM; with MOLT-4 leukemia, more than 100 µM; in the test with UO-31 renal, 21.4 µM; in the test with TK-10 renal, more than 92.4 µM. The total growth inhibition concentration (TGI) is more than 52.7 µM in the test with MCF7 breast; more than 64.2 µM in the test with MALME-3M melanoma; more than 100 µM in the test with K-562 leukemia; 35.7 µM in the test with HCT-15 colon; more than 28.4 µM in the test on LOX IMVI melanoma; 32.3 µM in the test on HOP-62 NSCLC.

Consider `N#CC1=C(c2ccccc2)C(=C2Nc3ccccc3N2)C2S/C(=C\c3ccccc3)C(=O)N2C1=N` (stereo not given), for which the TGI in the test with UACC-62 melanoma worked out at 4.76 µM; in the test with HCT-116 colon, 10.9 µM; in the test with A549 NSCLC it was 12.9 µM; in the test with HCC-2998 colon, 13.3 µM; in the test on COLO 205 colon, 20.5 µM; in the test with IGROV1 ovarian, 4.71 µM. Further, the TGI was found to be 6.4 µM with OVCAR-4 ovarian; 4.87 µM in the test on SR leukemia; 4.01 µM with CAKI-1 renal; 7.79 µM in the test on MOLT-4 leukemia; 3.74 µM in the test on UO-31 renal; 4.78 µM with TK-10 renal. Also, the TGI in the test with MALME-3M melanoma was 4.07 µM; with K-562 leukemia, 50.5 µM; in the test with HCT-15 colon it was 10.3 µM; in the test on SK-OV-3 ovarian, 3.62 µM; with LOX IMVI melanoma, 3.43 µM; with HOP-62 NSCLC it was 5.1 µM.

As to `O=C(CC(C(=O)c1cccs1)c1ccsc1)c1ccccc1` (stereo not given), the TGI in the test with UACC-62 melanoma is more than 100 µM; with HCT-116 colon, more than 100 µM; with A549 NSCLC it was 66.2 µM; in the test with HCC-2998 colon it was more than 100 µM; in the test with COLO 205 colon, more than 100 µM; in the test on IGROV1 ovarian it was more than 100 µM. In addition, the TGI in the test on OVCAR-4 ovarian, with SR leukemia, in the test on CAKI-1 renal, in the test with MOLT-4 leukemia, with UO-31 renal and in the test with TK-10 renal was more than 100 µM in each case. The TGI with MCF7 breast is 99.1 µM; in the test with HCT-15 colon, more than 100 µM; with SK-OV-3 ovarian it was more than 100 µM; in the test on LOX IMVI melanoma, more than 100 µM; in the test on HOP-62 NSCLC, more than 100 µM.
